Test results reported in article PMC7024302, “Ultrashort Cationic Lipopeptides–Effect of N-Terminal Amino Acid and Fatty Acid Type on Antimicrobial Activity and Hemolysis” (Molecules, 2020).
≈ marks a conversion by molar mass, not a printed value. Residues, ends and D or L forms follow the SMILES beside them.

Key:
[1] = Determination of peptide hydrophobicity with RP-HPLC (adjusted retention time); type: physicochemical; settings: RP-HPLC C18, linear 10–55% acetonitrile over 60 min, 0.1% TFA, 25.0 °C, UV 214 nm, triplicate; for Adjusted retention time: Table 2, nC = carbon atoms in fatty acid chain; for tR’: Table 3, adjusted retention time as hydrophobicity
Procedure: To determine peptide hydrophobicity, the Waters Alliance e2695 system with a Waters 2998 PDA Detector (software-Empower®3) was used. All analyses were carried out on a Phenomenex Luna C18(2) column (3.0 × 100 mm, 5 µm particle size, 100 Å pore size). The peptides were dissolved in water (0.1% TFA, v/v) to obtain a concentration of 1 g/L. UV detection at 214 nm was used, and aliquots (10 µL) were eluted with a linear 10–55% acetonitrile gradient in deionized water over 60 min at 25.0 ± 0.1 °C. The mobile phase flow rate was 0.5 mL/min. Both eluents contained 0.1% (v/v) of TFA. Each peptide sample was analyzed in triplicate.

S. aureus ATCC 25923 = type: cell-based, Staphylococcus aureus; settings: ATCC 25923, 18 h
Text: (§1) The Acinetobacter baumannii ATCC BAA-1605, Candida albicans ATCC 10231, Enterococcus faecium ATCC 700221, Klebsiella aerogenes ATCC 13048 (previously known as Enterobacter aerogenes), Klebsiella pneumoniae ATCC 700603, Pseudomonas aeruginosa ATCC 9027, Staphylococcus aureus ATCC 25923 and MRSA ATCC 33591, were acquired from the American Type Culture Collection (ATCC). Before running the tests, beads with cryo-protected microorganisms were transferred into fresh MHB (BioMaxima, Lublin, Poland) for bacteria or RPMI-1640 for fungi and incubated for 24 h at 37 °C. Then, the culture was seeded on the Mueller-Hinton agar (MHA) plates (BioMaxima, Lublin, Poland) for bacteria or Sabouraud dextrose agar (SDA) plates (BioMaxima, Lublin, Poland) for fungi and incubated as just mentioned. Cell densities for all assays were adjusted spectrophotometrically (Multiskan™ GO Microplate Spectrophotometer, Thermo Fisher Scientific, Vantaa, Finland) at 600 nm for bacteria and at 530 nm for fungi.
(§2) The MICs were determined by broth microdilution method according to the Clinical and Laboratory Standard Institute guidelines. For this purpose initial inoculums of bacteria (5 × 10^5 CFU/mL) in MHB (BioMaxima, Lublin, Poland) and fungi (2 × 10^3 CFU/mL) in RPMI-1640 with 2% D-glucose (Merck, Darmstadt, Germany) prepared with MOPS (pH 7.0 ± 0.1 at 25 °C; Merck, Darmstadt, Germany) were exposed to the ranging concentration of lipopeptides (0.5–256 µg/mL) and incubated at 37 °C for 18 h and 24 h respectively. The experiments were conducted on 96-well microtiter polystyrene plates (Kartell, Italy). The MIC was taken as the lowest peptide concentration at which a noticeable growth of microorganisms was inhibited. All experiments were conducted in triplicate.

[2] = tested on: S. aureus ATCC 33591 (MRSA); type: cell-based, Staphylococcus aureus; settings: ATCC 33591, 18 h
Text: as §1, §2

P. aeruginosa ATCC 9027 = type: cell-based, Pseudomonas aeruginosa; settings: ATCC 9027, 18 h
Text: as §1, §2

C. albicans ATCC 10231 = type: cell-based, Candida albicans; settings: ATCC 10231, 24 h, pH 7
Text: as §1, §2

[3] = tested on: human red blood cells (hRBCs); type: cell-based; settings: red cells of human, 1 h
Procedure: The hemolysis assay was performed as described earlier according to the method of Avrahami and Shai. Fresh human red blood cells (hRBCs) with anticoagulant (EDTA) were rinsed three times with a PBS (Merck, Darmstadt, Germany) by centrifugation at 800× g for 10 min and resuspended in PBS. Lipopeptides were serially diluted on 96-well microtiter polystyrene plate and hRBCs were added to reach final volume of 100 µL. Peptide concentration ranged between 0.5 and 256 µg/mL and final hRBCs concentration was 4% (v/v). Controls for zero hemolysis (blank) and 100% hemolysis consisted of hRBCs suspended in PBS and 1% of Triton-X 100 (Merck, Darmstadt, Germany), respectively. The plate was incubated for 1 h at 37 °C and then centrifuged (800× g, 10 min, 4 °C). Subsequently, supernatant was […] to new microtiter plates and absorbance at 540 nm were measured. All experiments were conducted in triplicate. Protocol of the study received approval from the local Bioethics Committee at the Medical University of Gdańsk (NKBBN/262/2019).

E. faecium ATCC 700221 = type: cell-based, Enterococcus faecium; settings: ATCC 700221, 18 h
Text: as §1, §2

[4] = tested on: K. pneumoniae ATCC 700603; type: cell-based, Klebsiella pneumoniae; settings: ATCC 700603, 18 h
Text: as §1, §2

[5] = tested on: A. baumannii ATCC BAA-1605; type: cell-based, Acinetobacter baumannii; settings: ATCC BAA-1605, 18 h
Text: as §1, §2

K. aerogenes ATCC 13048 = type: cell-based, Klebsiella aerogenes; settings: ATCC 13048, 18 h
Text: as §1, §2

Structure (SMILES) | Adjusted retention time [1] [min] | tR’ [1] [min] | MIC SA (S. aureus ATCC 25923) [mg/L] | MIC S [2] [mg/L] | MIC PA (P. aeruginosa ATCC 9027) [mg/L] | MIC CA (C. albicans ATCC 10231) [mg/L] | HC50 [3] | MIC E1 (E. faecium ATCC 700221) [mg/L] | MIC K [4] [mg/L] | MIC A [5] [mg/L] | MIC E2 (K. aerogenes ATCC 13048) [mg/L]
CCCCCCCCCCCCCC(=O)N[C@H](C(=O)N[C@@H](CCCNC(=N)N)C(=O)N[C@@H](CCCNC(=N)N)C(N)=O)[C@@H](C)CC [compound 38, C14-IRR-NH2] (HELM PEPTIDE1{[CCCCCCCCCCCCCC(=O)[*:2]].I.R.R.[am]}$$$$V2.0) | 45.650 | 45.65 | 4 (≈ 6.13 µM) | 4 (≈ 6.13 µM) | 4 (≈ 6.13 µM) | 4 (≈ 6.13 µM) | 78.92 (±4.38) µg/mL | 4 (≈ 6.13 µM) | 64 (≈ 98 µM) | 64 (≈ 98 µM) | 64 (≈ 98 µM)
CCCCCCCCCCCCCC(=O)N[C@@H](CCCCN)C(=O)N[C@@H](CCCNC(=N)N)C(=O)N[C@@H](CCCNC(=N)N)C(N)=O [compound 42, C14-KRR-NH2] (HELM PEPTIDE1{[CCCCCCCCCCCCCC(=O)[*:2]].K.R.R.[am]}$$$$V2.0) |  | 35.66 | 8 (≈ 12 µM) | 8 (≈ 12 µM) | 64 (≈ 95.8 µM) | 32 (≈ 47.9 µM) | 212.08 (±6.12) µg/mL | 8 (≈ 12 µM) | 128 (≈ 192 µM) | 64 (≈ 95.8 µM) | 64 (≈ 95.8 µM)
CCCCCCCCCCCC(=O)N[C@@H](CC(C)C)C(=O)N[C@@H](CCCNC(=N)N)C(=O)N[C@@H](CCCNC(=N)N)C(N)=O [compound 45, C12-LRR-NH2] (HELM PEPTIDE1{[CCCCCCCCCCCC(=O)[*:2]].L.R.R.[am]}$$$$V2.0) | 39.821 | 39.82 | 8 (≈ 12.8 µM) | 16 (≈ 25.6 µM) | 16 (≈ 25.6 µM) | 16 (≈ 25.6 µM) | 112.81 (±1.39) µg/mL | 16 (≈ 25.6 µM) | 256 (≈ 410 µM) | 64 (≈ 102 µM) | 256 (≈ 410 µM)
CCCCCCCCCCCCCC(=O)N[C@@H](CC(C)C)C(=O)N[C@@H](CCCNC(=N)N)C(=O)N[C@@H](CCCNC(=N)N)C(N)=O [compound 46, C14-LRR-NH2] (HELM PEPTIDE1{[CCCCCCCCCCCCCC(=O)[*:2]].L.R.R.[am]}$$$$V2.0) | 46.441 | 46.44 | 4 (≈ 6.13 µM) | 16 (≈ 24.5 µM) | 4 (≈ 6.13 µM) | 4 (≈ 6.13 µM) | 29.50 (±1.05) µg/mL | 8 (≈ 12.3 µM) | 128 (≈ 196 µM) | 64 (≈ 98 µM) | 128 (≈ 196 µM)
CCCCCCCCCCCC(=O)N[C@@H](CCSC)C(=O)N[C@@H](CCCNC(=N)N)C(=O)N[C@@H](CCCNC(=N)N)C(N)=O [compound 49, C12-MRR-NH2] (HELM PEPTIDE1{[CCCCCCCCCCCC(=O)[*:2]].M.R.R.[am]}$$$$V2.0) |  | 37.95 | 8 (≈ 12.4 µM) | 16 (≈ 24.9 µM) | 32 (≈ 49.8 µM) | 32 (≈ 49.8 µM) | 206.50 (±9.14) µg/mL | 16 (≈ 24.9 µM) | 256 (≈ 398 µM) | 64 (≈ 99.5 µM) | 256 (≈ 398 µM)
